Source: patent US10023592B2, “Bromodomain inhibitors” (Celgene Quanticel Research, Inc., priority 2013, dated 2018)
Structures can show the parent of a compound that is named as a salt.

Target: BRD4(BD1) (Homo sapiens (Human), UniProt O60885)
Assay: In vitro enzyme inhibition assay (BRD4 AlphaScreen)
Assay type: binding
Procedure: His-tagged BRD4 was cloned, expressed and purified to homogeneity. […] BRD4 binding and inhibition was assessed by monitoring the interaction of biotinylated H4-tetraacetyl peptide (AnaSpec, H4K5/8/12/16(Ac), biotin-labeled) with the target using the AlphaScreen technology (Life Technologies). […] After 20 min incubation at room temp, Alpha streptavidin donor beads and Nickel Chelate acceptor beads were added to a final concentration of 5 μg/mL.
The ability of the compounds disclosed herein to inhibit BRD4 activity was quantified and the respective IC50 value was determined.

[1] = in vitro enzyme inhibition assay

| SMILES | IC50 [1] [nM] | IC50 (class symbols A/B/C) [nM] |
| --- | --- | --- |
| CCc1ccccc1-c1sc(NS(=O)(=O)CC)cc1-c1ccc(=O)n(C)c1 [Example 435, N-[5-(2-ethylphenyl)-4-(1-methyl-6-oxopyridin-3-yl)thiophen-2-yl] ethanesulfonamide] | > 5000 |  |
| CCS(=O)(=O)Nc1ncc(Oc2ccc(F)cc2F)c(-c2cc(C(C)C)c(=O)n(C)c2)n1 [Example 514, N-[5-(2,4-difluorophenoxy)-4-(1-methyl-6-oxo-5-propan-2-ylpyridin-3-yl)pyrimidin-2-yl]ethanesulfonamide] | < 500 |  |
| CCS(=O)(=O)c1ccc(Oc2ccc(F)cc2F)c(-c2cn(C)c(=O)c3cncnc23)c1 [Example 234, 8-[2-(2,4-difluorophenoxy)-5-ethylsulfonylphenyl]-6-methylpyrido[4,3-d]pyrimidin-5-one] | 500 to 5000 |  |
| Cc1cc(-c2cc(S(C)(=O)=O)ccc2OCCC(F)(F)F)cn(C)c1=O [Example 405, 1,3-dimethyl-5-[5-methylsulfonyl-2-(3,3,3-trifluoropropoxy)phenyl]pyridin-2-one] | < 500 |  |
| Cn1cc(-c2cc(N)ccc2F)c2ccccc2c1=O [Example 23, 4-(5-amino-2-fluorophenyl)-2-methylisoquinolin-1-one hydrochloride] |  | 500 to 5000 |
| Cn1cc(-c2cc(CS(C)(=O)=O)ccc2OCC(F)(F)F)c2ocnc2c1=O [Example 239, 5-methyl-7-[5-(methylsulfonylmethyl)-2-(2,2,2-trifluoroethoxy)phenyl]-[1,3]oxazolo[4,5-c]pyridin-4-one] | < 500 |  |
| CCS(=O)(=O)c1ccc(OCC2CC2)c(-c2cc(N3CCCC3)c(=O)n(C)c2)c1 [Example 282, 5-[2-(cyclopropylmethoxy)-5-ethylsulfonylphenyl]-1-methyl-3-pyrrolidin-1-ylpyridin-2-one] | 500 to 5000 |  |
| CCC(=O)Nc1cc(-c2cccc(NS(C)(=O)=O)c2)cn(C)c1=O [Example 481, N-[5-[3-(methanesulfonamido)phenyl]-1-methyl-2-oxopyridin-3-yl]propanamide] | > 5000 |  |
| Cc1c(-c2cccc(NS(C)(=O)=O)c2)cn(C)c(=O)c1C [Example 97, N-[3-(1,4,5-trimethyl-6-oxopyridin-3-yl)phenyl]methanesulfonamide] |  | 500 to 5000 |
| CCCCc1cnc(NS(C)(=O)=O)nc1-c1cc(C)c(=O)n(C)c1 [Example 363, N-[5-butyl-4-(1,5-dimethyl-6-oxopyridin-3-yl)pyrimidin-2-yl]methanesulfonamide] | < 500 |  |
| COc1ccc(-c2cn(C)c(=O)c3ccccc23)cc1S(N)(=O)=O [Example 16, 2-methoxy-5-(2-methyl-1-oxoisoquinolin-4-yl) benzenesulfonamide] |  | 500 to 5000 |
| Cn1cc(-c2cc(S(C)(=O)=O)ccc2CCC2CC2)c2ccccc2c1=O [Example 319, 4-[2-(2-cyclopropylethyl)-5-methylsulfonylphenyl]-2-methylisoquinolin-1-one] | < 500 |  |
| Cn1cc(-c2cccc(S(=O)(=O)N3CCOCC3)c2)c2ccccc2c1=O [Example 14, 2-methyl-4-(3-morpholin-4-yl-sulfonylphenyl) isoquinolin-1-one] |  | 500 to 5000 |
| CCCCn1cc(-c2nc(NS(=O)(=O)CC)ncc2Oc2ccc(F)cc2F)cc(C)c1=O [Example 297, N-[4-(1-butyl-5-methyl-6-oxopyridin-3-yl)-5-(2,4-difluorophenoxy)pyrimidin-2-yl]ethanesulfonamide] | < 500 |  |
| Cn1cc(-c2ccc(F)c(N)c2)c2ccccc2c1=O [Example 26, 4-(3-amino-4-fluorophenyl)-2-methylisoquinolin-1-one hydrochloride] |  | 500 to 5000 |
| Cn1cc(-c2cc(N)cc(F)c2)c2ccccc2c1=O [Example 25, 4-(3-amino-5-fluorophenyl)-2-methylisoquinolin-1-one hydrochloride] |  | 500 to 5000 |
| Cn1cc(-c2cc(OCC3CC3)cc(S(C)(=O)=O)c2)c2ccccc2c1=O [Example 345, 4-[3-(cyclopropylmethoxy)-5-methylsulfonylphenyl]-2-methylisoquinolin-1-one] | < 500 |  |

The next lines start with the values.

| IC50 [1] [nM] | IC50 (class symbols A/B/C) [nM] | SMILES |
| --- | --- | --- |
| < 500 |  | CCCCc1cnc(NS(=O)(=O)CC)nc1-c1cc(Cl)c(=O)n(C)c1 [Example 360, N-[5-butyl-4-(5-chloro-1-methyl-6-oxopyridin-3-yl)pyrimidin-2-yl]ethanesulfonamide] |
| < 500 |  | COc1ccc(COc2cc(-c3cc(C)c(=O)n(C)c3)cc(S(C)(=O)=O)c2)cc1 [Example 323, 5-[3-[(4-methoxyphenyl)methoxy]-5-methylsulfonylphenyl]-1,3-dimethylpyridin-2-one] |
| < 500 |  | CCS(=O)(=O)c1ccc(NCC2CC2)c(-c2cc(NC)c(=O)n(C)c2)c1 [Example 408, 5-[2-(cyclopropylmethylamino)-5-ethylsulfonylphenyl]-1-methyl-3-(methylamino)pyridin-2-one] |
| 500 to 5000 |  | CCS(=O)(=O)Nc1ncc(Oc2ccc(F)cc2F)c(-c2cc(C)c(=O)n(CC3CCC3)c2)n1 [Example 299, N-[4-[1-(cyclobutylmethyl)-5-methyl-6-oxopyridin-3-yl]-5-(2,4-difluorophenoxy)pyrimidin-2-yl]ethanesulfonamide] |
| 500 to 5000 |  | Cn1cc(-c2cc(S(C)(=O)=O)ccc2OCC2CC2)c2ncncc2c1=O [Example 231, 8-[2-(cyclopropylmethoxy)-5-methylsulfonylphenyl]-6-methylpyrido[4,3-d]pyrimidin-5-one] |
| < 500 |  | CCCCc1cnc(S(C)(=O)=O)nc1-c1cn(C)c(=O)c2ccccc12 [Example 304, 4-(5-butyl-2-methylsulfonyl-pyrimidin-4-yl)-2-methylisoquinolin-1-one] |
| > 5000 |  | CC(=O)Nc1cc(-c2cccc(NS(C)(=O)=O)c2)cn(C)c1=O [Example 482, N-[5-[3-(methanesulfonamido)phenyl]-1-methyl-2-oxopyridin-3-yl]acetamide] |
| < 500 |  | [2H]C([2H])([2H])n1cc(-c2cc(NS(=O)(=O)CC)ccc2Oc2ccc(F)cc2F)ccc1=O [Example 141, N-{4-(2,4-difluorophenoxy)-3-[1-(^2H3)methyl-6-oxopyridin-3-yl]phenyl}ethanesulfonamide] |
| < 500 |  | CCCCc1ccc(S(C)(=O)=O)cc1-c1cn(C)c(=O)c2ccccc12 [Example 318, 4-(2-butyl-5-methylsulfonylphenyl)-2-methylisoquinolin-1-one] |
| < 500 |  | CCc1cnc(NS(=O)(=O)CC)nc1-c1cn(C)c(=O)c2ccccc12 [Example 300, N-[5-ethyl-4-(2-methyl-1-oxoisoquinolin-4-yl)pyrimidin-2-yl]ethanesulfonamide] |
| < 500 |  | CCCCn1cc(-c2nc(NS(C)(=O)=O)ncc2Oc2ccc(F)cc2F)cc(C)c1=O [Example 296, N-[4-(1-butyl-5-methyl-6-oxopyridin-3-yl)-5-(2,4-difluorophenoxy)pyrimidin-2-yl]methanesulfonamide] |
| < 500 |  | Cc1cc(-c2cc(NS(C)(=O)=O)ccc2Oc2ccc(F)cc2F)cn(C2CCC2)c1=O [Example 484, N-[3-(1-cyclobutyl-5-methyl-6-oxopyridin-3-yl)-4-(2,4-difluorophenoxy)phenyl]methanesulfonamide] |
| < 500 |  | Cn1cc(-c2nc(S(C)(=O)=O)ncc2OCC2CC2)c2ccccc2c1=O [Example 311, 4-[5-(cyclopropylmethoxy)-2-methylsulfonylpyrimidin-4-yl]-2-methylisoquinolin-1-one] |
| < 500 |  | CCCc1ccc(S(C)(=O)=O)cc1-c1cn(C)c(=O)c2ccccc12 [Example 314, 2-methyl-4-(5-methylsulfonyl-2-propylphenyl)isoquinolin-1-one] |
|  | > 5000 | CCS(=O)(=O)c1cccc(-c2cn(C)c(=O)c3cncn23)c1 [Example 133, 5-(3-ethylsulfonylphenyl)-7-methylimidazo[1,5-a]pyrazin-8-one] |
| < 500 |  | Cn1cc(-c2nc(N3CCCS3(=O)=O)ncc2Oc2ccc(F)cc2F)c2ccccc2c1=O [Example 171, 4-[5-(2,4-difluorophenoxy)-2-(1,1-dioxo-1,2-thiazolidin-2-yl)pyrimidin-4-yl]-2-methylisoquinolin-1-one] |
| < 500 |  | CCC1CCc2cc(NS(=O)(=O)CC)cc(-c3cn(C)c(=O)c4ccccc34)c2O1 (centres unmarked) [Example 491, N-[2-ethyl-8-(2-methyl-1-oxoisoquinolin-4-yl)-3,4-dihydro-2H-chromen-6-yl]ethanesulfonamide] |
|  | 500 to 5000 | Cn1cc(-c2ccc3c(c2)NCCO3)c2ccccc2c1=O [Example 19, 4-(3,4-dihydro-2H-1,4-benzoxazin-6-yl)-2-methylisoquinolin-1-one] |
| < 500 |  | Cn1cc(-c2cc(OCc3ccccc3)cc(S(C)(=O)=O)c2)c2ccccc2c1=O [Example 344, 2-methyl-4-(3-methylsulfonyl-5-phenylmethoxyphenyl)isoquinolin-1-one] |
| < 500 |  | Cc1cc(-c2cc(OCc3cccc(C#N)c3)cc(S(C)(=O)=O)c2)cn(C)c1=O [Example 339, 3-[[3-(1,5-dimethyl-6-oxopyridin-3-yl)-5-methylsulfonylphenoxy]methyl]benzonitrile] |
| < 500 |  | CCS(=O)(=O)c1ccc(OCC2CC2)c(-c2cn(C)c(=O)c3c2CCC3)c1 [Example 505, 4-[2-(cyclopropylmethoxy)-5-ethylsulfonylphenyl]-2-methyl-6,7-dihydro-5H-cyclopenta[c]pyridin-1-one] |
| < 500 |  | Cn1cc(-c2cc(S(C)(=O)=O)ccc2OCC2CC2)c2ocnc2c1=O [Example 237, 7-[2-(cyclopropylmethoxy)-5-methylsulfonylphenyl]-5-methyl-[1,3]oxazolo[4,5-c]pyridin-4-one] |
| < 500 |  | CCCc1cnc(NS(=O)(=O)CC)nc1-c1cc(OC)c(=O)n(C)c1 [Example 361, N-[4-(5-methoxy-1-methyl-6-oxopyridin-3-yl)-5-propylpyrimidin-2-yl]ethanesulfonamide] |
| < 500 |  | Cc1cc(-c2cc(OCc3ccccn3)cc(S(C)(=O)=O)c2)cn(C)c1=O [Example 330, 1,3-dimethyl-5-[3-methylsulfonyl-5-(pyridin-2-ylmethoxy)phenyl]pyridin-2-one] |
